Experimental data as given in ChEMBL document CHEMBL3393057, “Synthesis and transmembrane anion/cation symport activity of a rigid bis(choloyl) conjugate functionalized with guanidino groups” (Bioorg Med Chem Lett, 2015).

Legend:
[1] = Ionophoric activity across egg yolk L-alpha-phosphatidylcholine-based liposomal membrane vesicles (unknown origin) assessed as release of chloride ion after 300 seconds by electrode technique in presence of sodium nitrate in external solution; assay type: ADME; details: artificial membrane, 5 min
[2] = Ionophoric activity across egg yolk L-alpha-phosphatidylcholine-based liposomal membrane vesicles (unknown origin) assessed as release of chloride ion after 300 seconds by electrode technique in presence of sodium sulfate in external solution; assay type: ADME; details: artificial membrane, 5 min
[3] = Ionophoric activity across egg yolk L-alpha-phosphatidylcholine-based liposomal membrane vesicles (unknown origin) assessed as release of chloride ion at 5 mol% by electrode technique in presence of 500 mM LiCl; assay type: ADME; details: artificial membrane
[4] = Ionophoric activity across egg yolk L-alpha-phosphatidylcholine-based liposomal membrane vesicles (unknown origin) assessed as release of chloride ion at 5 mol% by electrode technique in presence of 500 mM NaCl; assay type: ADME; details: artificial membrane
[5] = Ionophoric activity across egg yolk L-alpha-phosphatidylcholine-based liposomal membrane vesicles (unknown origin) assessed as release of chloride ion at 5 mol% by electrode technique in presence of 500 mM KCl; assay type: ADME; details: artificial membrane
[6] = Ionophoric activity across egg yolk L-alpha-phosphatidylcholine-based liposomal membrane vesicles (unknown origin) assessed as release of chloride ion at 5 mol% by electrode technique in presence of 500 mM RbCl; assay type: ADME; details: artificial membrane
[7] = Ionophoric activity across egg yolk L-alpha-phosphatidylcholine-based liposomal membrane vesicles (unknown origin) assessed as release of chloride ion at 5 mol% by electrode technique in presence of 500 mM CsCl; assay type: ADME; details: artificial membrane
[8] = Ionophoric activity across egg yolk L-alpha-phosphatidylcholine-based liposomal membrane vesicles (unknown origin) assessed as induction of pH discharge at internal pH 7 and external aqueous phase pH 8 at 3 mol% by pyranine dye-based method in presence of NaI; details: artificial membrane
[9] = Ionophoric activity across egg yolk L-alpha-phosphatidylcholine-based liposomal membrane vesicles (unknown origin) assessed as induction of pH discharge at internal pH 7 and external aqueous phase pH 8 at 3 mol% by pyranine dye-based method in presence of NaBr; details: artificial membrane
[10] = Ionophoric activity across egg yolk L-alpha-phosphatidylcholine-based liposomal membrane vesicles (unknown origin) assessed as induction of pH discharge at internal pH 7 and external aqueous phase pH 8 at 3 mol% by pyranine dye-based method in presence of NaNO3; details: artificial membrane
[11] = Ionophoric activity across egg yolk L-alpha-phosphatidylcholine-based liposomal membrane vesicles (unknown origin) assessed as induction of pH discharge at internal pH 7 and external aqueous phase pH 8 at 3 mol% by pyranine dye-based method in presence of NaCl; details: artificial membrane

Measured: Activity

C[C@H](CCC(=O)NC(CCCNC(=N)N)C(=O)NCc1ccc(CNC(=O)C(CCCNC(=N)N)NC(=O)CC[C@@H](C)[C@@H]2CC[C@@H]3[C@@H]4[C@@H](C[C@@H](O)[C@]32C)[C@]2(C)CC[C@H](O)C[C@@H]2C[C@@H]4O)cc1)[C@H]1CC[C@H]2[C@@H]3[C@H](O)C[C@@H]4C[C@H](O)CC[C@]4(C)[C@H]3C[C@H](O)[C@]12C (stereo partly specified)
Dose-dependent effect: [1]
Active: all other assays above
